Measurements from patent US7902369B2, “Diaryl-substituted five-membered heterocycle derivative” (Banyu Pharmaceutical Co., Ltd., priority 2004, dated 2011).

Assays:
[1] = molecular target: T1, human metabotropic glutamate receptor 1a (mGluR1a) (Homo sapiens, UniProt Q13255); test: mGluR1 inhibiting effect: intracellular calcium concentration (FLIPR) in mGluR1a-expressing CHO cells; assay type: cell-based; conditions: suppression of calcium increase by 10 μM glutamic acid, test compound added 5 min before agonist
T1 construct: expressed in transfected cells
Protocol: MGlu1 inhibiting effect was measured by using the compound of the present invention.
With the use of Lipofectamine (Gibco BRL), cDNA of human metabotropic glutamate receptor 1a (mGluR1a) were transfected to CHO cells, to obtain cells expressing mGluR1a in a stable manner. CHO cells which expressed mGluR1a were cultured in DMEM medium containing 10% dialysis fetal bovine serum, 1% proline, 100 units/ml of penicillin, 0.1 mg of streptomycin sulfate and […] glutamine.
4 μM of Fluo-3 was incubated to mGluR1a-expressing CHO cells plated with 50000 cells per 1 well of 96-well black plate (Packard, Viewplate) the day before the measurement, in a CO2 incubator for 1 hour. The cells were washed 4 times with HBSS solution containing 20 mM HEPES and 25 mM probenecid, and the intracellular calcium concentration was measured with the use of Fluorescence Imaging Plate Reader (FLIPR; Mollecular Device). The test compounds and glutamic acid were adjusted with HBSS solution containing 20 mM HEPES and 2.5 mM Probenecid. The test compounds were added 5 min before agonist stimulation, and 10 μM of glutamic acid was used as agonist.
The calcium increased with 10 μM of glutamic acid was suppressed dose-dependently.

[2] = tested on: male ICR(CD-1) mouse; test: Suppression of mouse spontaneous movement level increased by methamphetamine; assay type: in vivo; conditions: po, 1 h, 3 mg/kg orally 30 min before 2 mg/kg methamphetamine, movement level during 60 min
Protocol: With the use of male ICR(CD-1) mouse (20-40 g), movement level was measured with the use of movement level-measuring device detecting animal migration by infrared radiation sensor (Neuroscience). Compounds or appropriate solvents were administered to mice, and after administrating normal saline solution or 2 mg/kg of methamphetamine 30 min later, the movement level during 60 min from after the administration was measured. By making the difference between the movement level of the methamphetamine-administered group and that of the solvents-administered group during measuring period as 100%, the movement level of test compound-administered group was shown by inhibition % for estimation.

[3] = tested on: rats; test: Suppression of the reduction of prepulse inhibition (PPI) by methamphetamine; assay type: in vivo; conditions: orally 30 min before 3 mg/kg methamphetamine; rat startle reaction, 120 dB pulse with prepulse
Protocol: Systems tested for prepulse inhibition which can detect specifically antipsychotic effect were also investigated. By using startle reflex measuring device (San Diego Instruments) which can dectect movement of rats, startle reaction to 120 dB-sound stimulation (pulse stimulation) combined with 63, 66 and 72 dB-sound stimulation prior to pulse stimulation (prepulse) was measured in the presence of 60 dB-background sound. The compounds of the present invention or appropriate solvents were administered to rats, and normal saline solution or 3 mg/kg of methamphetamine was administered 30 min later, to measure startle reation. Startle reactions to pulse stimulation and to stimulation with prepulse were named A and B respectively, and the prepulse inhibition (herein referred to as PPI) level was calculated with the following formula. Calculating formula of PPI:PPI(%)=100×(A−B)/A
In contrast to startle reaction toward pulse stimulation, in the presence of preminary prepulse of 72 dB, startle reaction decreased by about 50% (prepulse inhibition). When pre-treating with methamphemine, strate reaction decreased only by about 20%, and decrease of prepulse inhibition was observed. Moreover, by administrating orally the compounds having mGluR1 antagonist effect 30 min before methamphetamine administration to the present models, decrease of prepulse inhibition by methamphetamine had tendance to recover.

T1 sequence (Q13255 19-1194): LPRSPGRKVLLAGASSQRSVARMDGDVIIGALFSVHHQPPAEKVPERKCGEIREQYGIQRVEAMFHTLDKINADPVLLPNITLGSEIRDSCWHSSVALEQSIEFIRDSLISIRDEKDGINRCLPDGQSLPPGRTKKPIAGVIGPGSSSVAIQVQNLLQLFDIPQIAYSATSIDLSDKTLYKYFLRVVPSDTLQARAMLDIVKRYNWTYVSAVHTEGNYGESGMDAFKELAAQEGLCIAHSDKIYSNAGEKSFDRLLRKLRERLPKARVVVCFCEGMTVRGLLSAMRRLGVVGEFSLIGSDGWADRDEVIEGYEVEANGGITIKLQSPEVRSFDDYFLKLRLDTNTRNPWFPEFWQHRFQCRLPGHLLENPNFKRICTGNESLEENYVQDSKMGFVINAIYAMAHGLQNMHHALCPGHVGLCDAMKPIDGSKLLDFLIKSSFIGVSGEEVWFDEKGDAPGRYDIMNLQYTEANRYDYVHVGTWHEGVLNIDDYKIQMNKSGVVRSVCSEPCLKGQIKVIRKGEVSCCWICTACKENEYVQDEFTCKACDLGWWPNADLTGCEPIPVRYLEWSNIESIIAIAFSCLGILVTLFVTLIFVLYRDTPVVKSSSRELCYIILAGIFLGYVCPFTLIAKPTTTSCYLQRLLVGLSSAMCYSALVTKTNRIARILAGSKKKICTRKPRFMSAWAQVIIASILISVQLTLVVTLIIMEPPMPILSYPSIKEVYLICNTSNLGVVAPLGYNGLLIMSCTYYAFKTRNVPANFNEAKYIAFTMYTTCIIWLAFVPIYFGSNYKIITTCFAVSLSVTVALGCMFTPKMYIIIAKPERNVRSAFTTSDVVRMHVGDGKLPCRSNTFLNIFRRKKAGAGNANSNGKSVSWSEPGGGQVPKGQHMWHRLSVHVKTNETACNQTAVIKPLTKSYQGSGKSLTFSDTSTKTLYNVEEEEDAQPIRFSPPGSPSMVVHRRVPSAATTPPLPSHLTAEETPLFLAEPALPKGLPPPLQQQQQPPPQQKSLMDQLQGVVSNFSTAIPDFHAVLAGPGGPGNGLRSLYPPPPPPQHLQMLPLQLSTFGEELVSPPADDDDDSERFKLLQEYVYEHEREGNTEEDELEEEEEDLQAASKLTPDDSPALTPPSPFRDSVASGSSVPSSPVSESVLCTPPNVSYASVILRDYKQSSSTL

Row | SMILES | IC50 [1] [nM] | inhibition in vivo at 3 mg/kg [2] [%] | Inhibition effect to PPI disorder [3]
1 | Cc1c(-c2ccc3c(c2)CN(C2CC2)C3=O)nnn1-c1ccccc1F [Example 87, 4-(2-cyclopropyl-1-oxo-isoindoline-5-yl)-1-(2-fluorobenzene-3-yl)-5-methyl-1H-[1,2,3]triazole] | 4.3 | > 50 | yes
2 | Cc1c(-c2ccc3c(=O)n(CC(C)(C)O)ccc3c2)nnn1-c1ccc(F)cc1 [Example 204, 4-(2-(2-hydroxy-2-methyl-propyl)-1-oxo-isoquinoline-6-yl)-1-(4-fluorophenyl)-5-methyl-1H-[1,2,3]triazole] | 3.4 | > 50 | yes
3 | Cc1c(-c2ccc3c(c2)CN(C(C)C)C3=O)nnn1-c1ccc(F)cc1F [Example 119, 4-(2-isopropyl-1-oxo-isoindoline-5-yl)-1-(2,4-difluorophenyl)-5-methyl-1H-[1,2,3]triazole] | 4.3 | > 50 | yes
4 | CCCN1Cc2cc(-c3nnn(-c4cccnc4F)c3C)ccc2C1=O [Example 85, 1-(2-fluoropyridine-3-yl)-5-methyl-4-(2-propyl-1-oxo-isoindoline-5-yl)-1H-[1,2,3]triazole] | 4.4 | > 50 | yes
5 | Cc1c(-c2ccc3c(c2)CN(CC(F)F)C3=O)nnn1-c1ccc(F)cc1 [Example 151, 4-(2-(2,2-difluoroethyl)-1-oxo-isoindoline-5-yl)-1-(4-fluorophenyl)-5-methyl-1H-[1,2,3]triazole] | 2.5 | > 50 | yes
6 | Cc1c(-c2ccc3c(c2)CN(CC(C)(C)O)C3=O)nnn1-c1ccc(F)cc1 [Example 181, 4-(2-(2-hydroxy-2-methyl-propyl)-1-oxo-isoindoline-5-yl)-1-(4-fluorophenyl)-5-methyl-1H-[1,2,3]triazole] | 18 | > 50 | yes
7 | Cc1c(-c2ccc3nc(CC(C)(C)O)ccc3c2)nnn1-c1ccc(F)cc1 [Example 227] | 2.4 | > 50 | yes

The remaining compounds from weak to strong by IC50 [1], led by results:

Row | IC50 [1] [nM] | SMILES | inhibition in vivo at 3 mg/kg [2] [%] | Inhibition effect to PPI disorder [3]
8 | 6.5 | Cc1c(-c2ccc3c(c2)CN(C(C)C)C3=O)nnn1-c1cccnc1F [Example 36, 4-(2-isopropyl-1-oxo-isoindoline-5-yl)-1-(2-fluoropyridine-3-yl)-5-methyl-1H-[1,2,3]triazole] | > 50 | yes
9 | 3.2 | Cc1c(-c2ccc3c(c2)CN(C2CC2)C3=O)nnn1-c1cccnc1F [Example 49, 4-(2-cyclopropyl-1-oxo-isoindoline-5-yl)-1-(2-fluoropyridine-3-yl)-5-methyl-1H-[1,2,3]triazole] | > 50 | yes
10 | 2.3 | Cc1c(-c2ccc3c(c2)CC2(CC2)C3=O)nnn1-c1cccnc1F [Example 34, 1-(2-fluoropyridine-3-yl)-5-methyl-4-(1-oxoindane-2-spiro-1′-cyclopropyl-5-yl)-1H-[1,2,3]triazole] | > 50 | yes
